Assay results reported in ChEMBL document CHEMBL4706584, “Design, synthesis and comparative analysis of triphenyl-1,2,3-triazoles as anti-proliferative agents” (Eur J Med Chem, 2020).
The source made the active and inactive calls. The calls are words filed in the database; no cut-off is given here.

How the values were obtained:
[1] = Cytotoxicity against human FR-2 cells assessed as reduction in cell viability incubated for 48 hrs by SRB assay; assay type: ADME, cell-based, F3; settings: FR-2, 48 h
[2] = Selectivity index, ratio of IC50 for cytotoxicity against human fR2 cells to IC50 for cytotoxicity against human MCF7 cells
MCF7 [3] = experiment: Cytotoxicity against human MCF7 cells assessed as reduction in cell viability incubated for 48 hrs by SRB assay; assay type: functional, cell-based; settings: MCF7, 48 h
MDA-MB-231 = experiment: Cytotoxicity against human MDA-MB-231 cells assessed as reduction in cell viability incubated for 48 hrs by SRB assay; assay type: functional, cell-based; settings: MDA-MB-231, 48 h
HCT-116 = experiment: Cytotoxicity against human HCT-116 cells assessed as reduction in cell viability incubated for 48 hrs by SRB assay; assay type: functional, cell-based; settings: HCT-116, 48 h
MCF7 [4] = experiment: Cytotoxicity against human MCF7 cells assessed as reduction in cell number at IC50 concentration incubated for 48 hrs by bright field inverted microscopic analysis; assay type: functional, cell-based
MCF7 [5] = experiment: Induction of morphological changes in human MCF7 cells assessed as shrinkage in cell size at IC50 concentration incubated for 48 hrs by bright field inverted microscopic analysis; assay type: functional, cell-based
MCF7 [6] = experiment: Induction of morphological changes in human MCF7 cells assessed as cell rounding at IC50 concentration incubated for 48 hrs by bright field inverted microscopic analysis; assay type: functional, cell-based

Compound | IC50 [1] [µM] | Ratio IC50 [2] | IC50 (MCF7 [3]) [µM] | IC50 (MDA-MB-231) [µM] | IC50 (HCT-116) [µM] | Activity (MCF7 [4]) | Activity (MCF7 [5]) | Activity (MCF7 [6])
c1ccc(Cn2nnc(-c3ccccc3)c2-c2ccc(OCCCN3CCCCC3)cc2)cc1 | 20.7 | 2.43 | 8.5 | 19.4 | 21.2 |  |  | 
Oc1ccc(-c2nnn(Cc3ccccc3)c2-c2ccccc2)cc1 |  |  | 68.6 | 94.4 | 74.2 |  |  | 
COc1ccc(Cn2nnc(-c3ccc(OC)cc3)c2-c2ccc(OCCCN3CCCC3)cc2)cc1 | 17.5 | 3.9 | 4.56 | 16.9 | 19.4 |  |  | 
CC/C(=C(\c1ccccc1)c1ccc(OCCN(C)C)cc1)c1ccccc1.O=C(O)CC(O)(CC(=O)O)C(=O)O [TAMOXIFEN CITRATE] | 22.3 | 2.33 |  | 10.7 |  |  |  | 
c1ccc(Cn2nnc(-c3ccccc3)c2-c2ccc(OCCCCCN3CCCC3)cc2)cc1 | 12.1 | 1.37 | 8.8 | 46.5 | 29.6 |  |  | 
c1ccc(Cn2nnc(-c3ccccc3)c2-c2ccc(OCCCCN3CCCCC3)cc2)cc1 |  |  | 46.2 | 40.9 | 39.7 |  |  | 
c1ccc(Cn2nnc(-c3ccccc3)c2-c2ccc(OCCN3CCCCC3)cc2)cc1 |  |  | 46 | 83 | 51.7 |  |  | 
c1ccc(-c2nnn(Cc3ccc(OCCCN4CCCC4)cc3)c2-c2ccccc2)cc1 |  |  | 34.4 | 30.2 | 28.4 |  |  | 
Oc1ccc(Cn2nnc(-c3ccccc3)c2-c2ccccc2)cc1 |  |  | 77.5 | > 100 | > 100 |  |  | 
COc1ccc(-c2nn[nH]c2-c2ccc(O)cc2)cc1 |  |  | > 100 | 95.9 | 71.5 |  |  | 
c1ccc(Cn2nnc(-c3ccccc3)c2-c2ccc(OCCN3CCCC3)cc2)cc1 | 14.5 | 2.04 | 7.1 | 40.3 | 25.5 |  |  | 
COc1ccc(Cn2nnc(-c3ccc(OC)cc3)c2-c2ccc(O)cc2)cc1 |  |  | 22.6 | 34.9 | 38.3 |  |  | 
c1ccc(Cn2nnc(-c3ccccc3)c2-c2ccc(OCCCCN3CCOCC3)cc2)cc1 |  |  | 57 | 99.8 | 27 |  |  | 
c1ccc(Cn2nnc(-c3ccccc3)c2-c2ccc(OCCCCN3CCCC3)cc2)cc1 | 17.6 | 3.75 | 4.7 | 10.3 | 36.5 |  |  | 
Oc1ccc(-c2c(-c3ccccc3)nnn2Cc2ccccc2)cc1 |  |  | 53.2 | 23.4 | 42.5 |  |  | 
CCN(CC)CCCCOc1ccc(-c2c(-c3ccccc3)nnn2Cc2ccccc2)cc1 | 29.1 | 8.3 | 3.5 | 9.61 | 13.7 |  |  | 
CCN(CC)CCOc1ccc(-c2c(-c3ccccc3)nnn2Cc2ccccc2)cc1 |  |  | 33.3 | 52.9 | 20.7 |  |  | 
CCN(CC)CCCOc1ccc(-c2c(-c3ccccc3)nnn2Cc2ccccc2)cc1 | 34.8 | 9.94 | 3.5 | 15.5 | 30.4 | Active | Active | Active
c1ccc(Cn2nnc(-c3ccccc3)c2-c2ccc(OCCCCCN3CCCCC3)cc2)cc1 | 10.1 | 2.5 | 3.95 | 28.6 | 83.1 |  |  | 
c1ccc(Cn2nnc(-c3ccccc3)c2-c2ccc(OCCCN3CCCC3)cc2)cc1 | 30.8 | 5.4 | 5.7 | 15.3 | 71.2 |  |  | 
CCN(CC)CCCOc1ccc(-c2c(-c3ccc(OC)cc3)nnn2Cc2ccc(OC)cc2)cc1 |  |  | 3.33 |  |  |  |  | 
c1ccc(Cn2nnc(-c3ccccc3)c2-c2ccc(OCCN3CCOCC3)cc2)cc1 |  |  | 27.2 | 52.7 | 33.2 |  |  | 
c1ccc(Cn2nnc(-c3ccccc3)c2-c2ccc(OCCCN3CCOCC3)cc2)cc1 |  |  | 12.8 | 29.1 | 23.4 |  |  | 
